# Test results taken from patent US7943184B2, “Process for preparing an extract from ivy leaves” (Engelhard Arzneimittel GmbH & Co. KG, priority 2003, dated 2011).
# How the values were obtained:
# [1] = Absorption study by means of the biopharmaceutics classification system (BCS); format: in vitro ADME
# Description: It was possible to show in an absorption study by means of the biopharmaceutics classification system (BCS) that α-hederin is to be attributed with a moderate absorption (10-90%). […] Absorption studies were carried out on rats for this purpose.
# [2] = Absorption studies on rats: α-hederin plasma concentration after i.v. or oral administration of ivy leaf extracts; format: in vivo; settings: all samples after i.v. or p.o. administration of extract A or B
# Excerpt: The influence of administration of two different extracts on the plasma concentration of α-hederin was subsequently investigated. The change in the plasma concentration of α-hederin with a single administration compared with multiple administration of the extract and with different blood sampling times after administration was also investigated, as was the α-hederin absorption rate. Two extracts whose saponin distribution is shown in Table 1 below were selected for this purpose:
# For intravenous administration, the required amount of extract was dissolved in 11% (m/m) ethanol, filtered and injected. It was aimed to administer a volume of 2 ml of extract solution (dose in each case [mg/kg of bodyweight]: 25). A blood sample was taken from the animals 5 minutes after the administration. About 2 ml of whole blood with added EDTA for anticoagulation were required for each sample.
# Suspensions of the extracts in glycerol were prepared for oral administration. The animals were gavaged with about 2 ml of these suspensions (dose in each case [mg/kg of bodyweight]: 1000 and 166.66). 2 ml of blood were taken from each of the animals 1 and 3 hours after the last administration in each case.
# The total saponin content takes account of the molar masses of the two constituents and is based on α-hederin. The total saponin content in extract A in this case was 9.8%, based on α-hederin. […]
# smooth muscles = assay: Spasmolytic activity / relaxation of smooth muscles; settings: via binding to β-adrenergic receptors; recent studies by the applicant
permeation through the membranes ([1]; same conditions as BCS absorption study),Hederacoside C in plasma samples [2],"absorption (BCS) ([1]; biopharmaceutics classification system, moderate absorption)",Structure (SMILES),relaxation of smooth muscles (smooth muscles)
did not permeate through the membranes,not detectable,,C[C@@H]1O[C@@H](O[C@H]2[C@H](O[C@H]3CC[C@@]4(C)[C@@H](CC[C@]5(C)[C@@H]4CC=C4[C@@H]6CC(C)(C)CC[C@]6(C(=O)O[C@@H]6O[C@H](CO[C@@H]7O[C@H](CO)[C@@H](O[C@@H]8O[C@@H](C)[C@H](O)[C@@H](O)[C@H]8O)[C@H](O)[C@H]7O)[C@@H](O)[C@H](O)[C@H]6O)CC[C@]45C)[C@]3(C)CO)OC[C@H](O)[C@@H]2O)[C@H](O)[C@H](O)[C@H]1O [hederacoside C],
,,10-90%,C[C@@H]1O[C@@H](O[C@H]2[C@H](O[C@H]3CC[C@@]4(C)[C@@H](CC[C@]5(C)[C@@H]4CC=C4[C@@H]6CC(C)(C)CC[C@]6(C(=O)O)CC[C@]45C)[C@]3(C)CO)OC[C@H](O)[C@@H]2O)[C@H](O)[C@H](O)[C@H]1O [α-hederin],causes relaxation of smooth muscles
